Results on 19 molecules are retold here after patent US12281122B1, “PI3K inhibitors” (Cogent Biosciences, Inc., priority 2023, dated 2025).

In test [1] the test system is T47D (PI3Kα-H1047R) cell line. Put plainly: HTRF phospho-AKT(S473) cell assay in T47D cells. The test is classed as cell-based, human. An outline of the steps:
(§1)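 pAKT(S473) in lysates read by HTRF after a 2 h, 37 °C compound exposure (12-point 1:3 series, max 0.5% DMSO). SKBR3 (wild type, top 10 μM) received 70 ng/ml PDGF-BB during the final 15 min; T47D (H1047R, top 5 μM) was unstimulated. IC50 values derived from the dose-response.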

In test [2] the test system is SKBR3 (PI3Kα-Wild Type) cell line. As to the kind of experiment: HTRF phospho-AKT(S473) cell assay in SKBR3 cells. It is filed as cell-based, human. An outline of the steps:
as §1
On the technique in general: Time-resolved FRET reads energy transfer from a long-lived donor to a nearby acceptor.

The mark [3] stands for this setting: Homo sapiens; HTRF phospho-AKT(S473), T47D (PI3Kα-H1047R) cells, 2 hours compound incubation.
Where [4] appears, read: Homo sapiens, SK-BR-3; HTRF phospho-AKT(S473), SKBR3 (PI3Kα-Wild Type) cells, 2 hours compound incubation, PDGF-BB stimulated.
Where [5] appears, read: Homo sapiens; T47D (PI3Kα-H1047R) cells, HTRF phospho-AKT(S473), 2 hours compound incubation.
Setting [6] is: Homo sapiens, SK-BR-3; SKBR3 (PI3Kα-Wild Type) cells, HTRF phospho-AKT(S473), 2 hours compound incubation, PDGF-BB stimulated.

SMILES strings stand for the structures. pIC50: −log10 of the molar value.

What is called pIC50 is the negative decadic logarithm of the IC50, by convention in mol/L. High values mean a low IC50, low ones a high IC50. Regarding `Cc1cc([C@@H](C)Nc2ccc(Cl)nc2C(=O)NS(C)(=O)=O)c2nc(N3CCN(c4cc(C)nc(C)n4)CC3)n(C)c(=O)c2c1` [Compound 617, (R)-6-chloro-3-((1-(2-(4-(2,6-dimethylpyrimidin-4-yl)piperazin-1-yl)-3,6-dimethyl-4-oxo-3,4-dihydroquinazolin-8-yl)ethyl)amino)-N-(methylsulfonyl) picolinamide], the figures for the pIC50 in test [1] (setting [3]) and in test [2] (setting [4]) were 6.30 to 6.60 and no more than 5.30, respectively.
With `Cc1cc([C@@H](C)Nc2ccc(Cl)nc2C(=O)NS(C)(=O)=O)c2nc(N3CCC[C@@H](c4cnc(C)cn4)C3)n(C)c(=O)c2c1` (relative stereo) [Compound 586, 6-chloro-3-(((R)-1-(3,6-dimethyl-2-((R*)-3-(5-methylpyrazin-2-yl)piperidin-1-yl)-4-oxo-3,4-dihydroquinazolin-8-yl)ethyl)amino)-N-(methylsulfonyl) picolinamide], the pIC50 in test [1] (setting [3]) was 6.30 to 6.60; in test [2] (setting [4]), no more than 5.30.
In the case of `Cc1cc([C@@H](C)Nc2ccc(Cl)nc2C(=O)NS(C)(=O)=O)c2nc(N3CCC(c4ncc(C#N)cc4C)CC3)n(C)c(=O)c2c1` [Compound 266, (R)-6-chloro-3-((1-(2-(4-(5-cyano-3-methylpyridin-2-yl)piperidin-1-yl)-3,6-dimethyl-4-oxo-3,4-dihydroquinazolin-8-yl)ethyl)amino)-N-(methylsulfonyl) picolinamide], the pIC50 in test [1] (setting [5]) was greater than 6.60; in test [2] (setting [6]), 5.30 to 6.00.
Take `Cc1cc([C@@H](C)Nc2ccc(Cl)nc2C(=O)NS(C)(=O)=O)c2nc(N3C[C@@H]4[C@H](C3)[C@H]4n3ccccc3=O)n(C)c(=O)c2c1` [Compound 755, 6-chloro-3-(((R)-1-(3,6-dimethyl-4-oxo-2-((1R,5S,6S)-6-(2-oxopyridin-1(2H)-yl)-3-azabicyclo[3.1.0]hexan-3-yl)-3,4-dihydroquinazolin-8-yl)ethyl)amino)-N-(methylsulfonyl) picolinamide]: the pIC50 was 6.30 to 6.60 in test [1] (setting [3]) and 5.30 to 6.00 in test [2] (setting [4]).
On to `Cc1cnc([C@H]2CCCN(c3nc4c([C@@H](C)Nc5ccc(Cl)nc5C(=O)NS(C)(=O)=O)cc(C)cc4c(=O)n3C)C2)nc1` (relative stereo) [Compound 621, 6-chloro-3-(((R)-1-(3,6-dimethyl-2-((R*)-3-(5-methylpyrimidin-2-yl)piperidin-1-yl)-4-oxo-3,4-dihydroquinazolin-8-yl)ethyl)amino)-N-(methylsulfonyl) picolinamide], for which the pIC50 in test [1] (setting [3]) is 6.00 to 6.30; in test [2] (setting [4]) it was no more than 5.30.
The matching figures for `Cc1cc([C@@H](C)Nc2ccc(Cl)nc2C(=O)NS(C)(=O)=O)c2nc(N3CCC(c4cccc5c4cnn5C)CC3)n(C)c(=O)c2c1` [Compound 678, (R)-6-chloro-3-((1-(3,6-dimethyl-2-(4-(1-methyl-1H-indazol-4-yl)piperidin-1-yl)-4-oxo-3,4-dihydroquinazolin-8-yl)ethyl)amino)-N-(methylsulfonyl) picolinamide]: 6.30 to 6.60 and no more than 5.30.
For `Cc1cc([C@@H](C)Nc2ccc(Cl)nc2C(=O)NS(C)(=O)=O)c2nc(N3C[C@@H]4C[C@H]3CN4c3ccc(C#N)cn3)n(C)c(=O)c2c1` [Compound 580, 6-chloro-3-(((R)-1-(2-((1S,4S)-5-(5-cyanopyridin-2-yl)-2,5diazabicyclo [2.2.1]heptan-2-yl)-3,6-dimethyl-4-oxo-3,4-dihydroquinazolin-8-yl)ethyl)amino)-N-(methylsulfonyl) picolinamide], the negative logarithm of the IC50 (pIC50) in test [1] (setting [3]) is 6.30 to 6.60; in test [2] (setting [4]) it was no more than 5.30.
In the case of `Cc1cc([C@@H](C)Nc2ccc(Cl)nc2C(=O)NS(C)(=O)=O)c2nc(N3CCC(n4cc(-c5cnc(C)cn5)cn4)CC3)n(C)c(=O)c2c1` [Compound 270, (R)-6-chloro-3-((1-(3,6-dimethyl-2-(4-(4-(5-methylpyrazin-2-yl)-1H-pyrazol-1-yl)piperidin-1-yl)-4-oxo-3,4-dihydroquinazolin-8-yl)ethyl)amino)-N-(methylsulfonyl) picolinamide], the pIC50 in test [1] (setting [5]) is greater than 6.60; in test [2] (setting [6]) it was no more than 5.30.
On to `Cc1cnc([C@H]2[C@@H]3CN(c4nc5c([C@@H](C)Nc6ccc(Cl)nc6C(=O)NS(C)(=O)=O)cc(C)cc5c(=O)n4C)C[C@@H]32)nc1` [Compound 502, 6-chloro-3-(((R)-1-(3,6-dimethyl-2-((1R,5S,6R)-6-(5-methylpyrimidin-2-yl)-3-azabicyclo[3.1.0]hexan-3-yl)-4-oxo-3,4-dihydroquinazolin-8-yl)ethyl)amino)-N-(methylsulfonyl) picolinamide], for which the pIC50 in test [1] (setting [3]) is 6.30 to 6.60; in test [2] (setting [4]), 5.30 to 6.00.
Take `Cc1cc([C@@H](C)Nc2ccc(Cl)nc2C(=O)NS(C)(=O)=O)c2nc(-c3ccnc(O[C@@H]4CCN(C)CC4(F)F)c3)n(C)c(=O)c2c1` [Compound 809, 6-chloro-3-(((R)-1-(2-(2-(((R)-3,3-difluoro-1-methylpiperidin-4-yl)oxy)pyridin-4-yl)-3,6-dimethyl-4-oxo-3,4-dihydroquinazolin-8-yl)ethyl)amino)-N-(methylsulfonyl) picolinamide]: the pIC50 in test [1] (setting [3]) was 6.30 to 6.60; in test [2] (setting [4]) it was no more than 5.30.
Take `Cc1cc([C@@H](C)Nc2ccc(Cl)nc2C(=O)NS(C)(=O)=O)c2nc(N3CCC(c4cc(C)no4)CC3)n(C)c(=O)c2c1` [Compound 539, (R)-6-chloro-3-((1-(3,6-dimethyl-2-(4-(3-methylisoxazol-5-yl)piperidin-1-yl)-4-oxo-3,4-dihydroquinazolin-8-yl)ethyl)amino)-N-(methylsulfonyl) picolinamide]: the negative-log IC50 (pIC50) in test [1] (setting [3]) was greater than 6.60; in test [2] (setting [4]) it was no more than 5.30.
For the molecule `Cc1cc([C@@H](C)Nc2ccc(Cl)nc2C(=O)NS(C)(=O)=O)c2nc(N3C[C@H]4C[C@@H]3CN4c3nc(C)ncc3F)n(C)c(=O)c2c1` [Compound 605, 6-chloro-3-(((R)-1-(2-((1R,4R)-5-(5-fluoro-2-methylpyrimidin-4-yl)-2,5-diazabicyclo [2.2.1]heptan-2-yl)-3,6-dimethyl-4-oxo-3,4-dihydroquinazolin-8-yl)ethyl)amino)-N-(methylsulfonyl) picolinamide], the pIC50 in test [1] (setting [3]) was 6.30 to 6.60; in test [2] (setting [4]) it was no more than 5.30.
`COc1cnc(C2CCN(c3nc4c([C@@H](C)Nc5ccc(Cl)nc5C(=O)NS(C)(=O)=O)cc(C)cc4c(=O)n3C)CC2)cn1` [Compound 408, (R)-6-chloro-3-((1-(2-(4-(5-methoxypyrazin-2-yl)piperidin-1-yl)-3,6-dimethyl-4-oxo-3,4-dihydroquinazolin-8-yl)ethyl)amino)-N-(methylsulfonyl) picolinamide]: the pIC50 was greater than 6.60 in test [1] (setting [5]) and no more than 5.30 in test [2] (setting [6]).
For the molecule `Cc1cc([C@@H](C)Nc2ccc(Cl)nc2C(=O)NS(C)(=O)=O)c2nc(N3CCN(c4nccnc4C)CC3)n(C)c(=O)c2c1` [Compound 553, (R)-6-chloro-3-((1-(3,6-dimethyl-2-(4-(3-methylpyrazin-2-yl)piperazin-1-yl)-4-oxo-3,4-dihydroquinazolin-8-yl)ethyl)amino)-N-(methylsulfonyl) picolinamide], the negative logarithm of the IC50 (pIC50) in test [1] (setting [3]) is greater than 6.60; in test [2] (setting [4]) it was 5.30 to 6.00.
The matching figures for `CCn1c(N2C[C@@H]3[C@H](C2)[C@H]3c2cnc(C)cn2)nc2c([C@@H](C)Nc3ccc(Cl)nc3C(=O)NS(C)(=O)=O)cc(C)cc2c1=O` [Compound 572, 6-chloro-3-(((R)-1-(3-ethyl-6-methyl-2-((1R,5S,6R)-6-(5-methylpyrazin-2-yl)-3-azabicyclo[3.1.0]hexan-3-yl)-4-oxo-3,4-dihydroquinazolin-8-yl)ethyl)amino)-N-(methylsulfonyl) picolinamide]: greater than 6.60 and 5.30 to 6.00.
In the case of `Cc1cc([C@@H](C)Nc2ccc(Cl)nc2C(=O)NS(C)(=O)=O)c2nc(N3CC4C[C@H]3CN4c3ccc(N(C)C)cc3)n(C)c(=O)c2c1` (stereo in doubt) [Compound 743, 6-chloro-3-(((R)-1-(2-((1S,4R)-5-(4-(dimethylamino)phenyl)-2,5-diazabicyclo [2.2.1]heptan-2-yl)-3,6-dimethyl-4-oxo-3,4-dihydroquinazolin-8-yl)ethyl)amino)-N-(methylsulfonyl) picolinamide], the results for the pIC50 in test [1] (setting [3]) and in test [2] (setting [4]) were 5.30 to 6.00 and no more than 5.30, respectively.
On to `CCn1c(N2C[C@@H]3[C@H](C2)[C@H]3c2ccn(C)n2)nc2c([C@@H](C)Nc3ccc(Cl)nc3C(=O)NS(C)(=O)=O)cc(C)cc2c1=O` [Compound 432, 6-chloro-3-(((R)-1-(3-ethyl-6-methyl-2-((1R,5S,6R)-6-(1-methyl-1H-pyrazol-3-yl)-3-azabicyclo[3.1.0]hexan-3-yl)-4-oxo-3,4-dihydroquinazolin-8-yl)ethyl)amino)-N-(methylsulfonyl) picolinamide], for which the results for the negative logarithm of the IC50 (pIC50) in test [1] (setting [5]) and in test [2] (setting [6]) were greater than 6.60 and 5.30 to 6.00, respectively.
Regarding `Cc1cc([C@@H](C)Nc2ccc(Cl)nc2C(=O)NS(C)(=O)=O)c2nc(N3Cc4ccc(-c5ccnc(C)c5)cc4C3)n(C)c(=O)c2c1` [Compound 709, (R)-6-chloro-3-((1-(3,6-dimethyl-2-(5-(2-methylpyridin-4-yl)isoindolin-2-yl)-4-oxo-3,4-dihydroquinazolin-8-yl)ethyl)amino)-N-(methylsulfonyl) picolinamide], the pIC50 is 6.30 to 6.60 in test [1] (setting [3]) and no more than 5.30 in test [2] (setting [4]).
For the molecule `Cc1cc([C@@H](C)Nc2ccc(Cl)nc2C(=O)NS(C)(=O)=O)c2nc(N3CCC(c4cccn(C)c4=O)CC3)n(C)c(=O)c2c1` [Compound 348, (R)-6-chloro-3-((1-(3,6-dimethyl-2-(4-(1-methyl-2-oxo-1,2-dihydropyridin-3-yl)piperidin-1-yl)-4-oxo-3,4-dihydroquinazolin-8-yl)ethyl)amino)-N-(methylsulfonyl) picolinamide], the results for the pIC50 in test [1] (setting [5]) and in test [2] (setting [6]) were greater than 6.60 and no more than 5.30, respectively.
